Earlier results, collected in paper PMC7395068, “The evolution of strategies to minimise the risk of human drug-induced liver injury (DILI) in drug discovery and development” (Archives of Toxicology, 2020).
Like-named read-outs stand apart in the source and are kept apart here.

Assays:
[1] = system: primary human hepatocytes, NIH3T3 fibroblasts, BSEP, CYP3A4; details: cited from earlier work
[2] = cited from earlier work
[3] = cited from earlier work; remark: listed apart in the source
[4] = In vitro Assay, ref Schadt 2015

Molecule: COCCCOc1cc(C[C@@H](C[C@H](N)[C@@H](O)C[C@H](C(=O)NCC(C)(C)C(N)=O)C(C)C)C(C)C)ccc1OC [aliskiren]
- Cellular toxicity (3T3 cells) [1, 4]: -VE
- Combined Assay [1, 4]: -VE
- GSH adduct HML [1, 4]: -VE
- Hepatocyte cellular toxicity [1, 4]: -VE
- MitoTox 3T3 [1, 4]: -VE
- TDI CYP3A4 [1, 4]: -VE
- hBSEP inhibition [1, 4]: -VE

Molecule: O=C1CCc2ccc(OCCCCN3CCN(c4cccc(Cl)c4Cl)CC3)cc2N1 [aripiprazole]
- DILI +VE (5-8), DILI -VE (-4) ([2]; ref Chen 2016): -VE
- DILI severity category ([2]; ref Chen 2016): Ambiguous DILI-concern
- Cellular toxicity (3T3 cells) [1]: -VE
- Combined Assay [1]: -VE
- GSH adduct HML [1]: -VE
- Hepatocyte cellular toxicity [1]: -VE
- MitoTox 3T3 [1]: -VE
- TDI CYP3A4 [1]: -VE
- hBSEP inhibition [1]: -VE
- In vivo DILI ([3]; ref Schadt 2015): -VE

Molecule: COC(=O)N[C@H](C(=O)N[C@@H](Cc1ccccc1)[C@@H](O)CN(Cc1ccc(-c2ccccn2)cc1)NC(=O)[C@@H](NC(=O)OC)C(C)(C)C)C(C)(C)C [atazanavir]
- DILI +VE (5-8), DILI -VE (-4) ([2]; ref Chen 2016): +VE
- DILI severity category ([2]; ref Chen 2016): vLess-DILI-Concern
- Cellular toxicity (3T3 cells) [1, 4]: +VE
- Combined Assay [1, 4]: +VE
- GSH adduct HML [1, 4]: +VE
- Hepatocyte cellular toxicity [1, 4]: +VE
- MitoTox 3T3 [1, 4]: -VE
- TDI CYP3A4 [1, 4]: -VE
- hBSEP inhibition [1, 4]: +VE
- In vivo DILI ([3]; ref Schadt 2015): +VE

Molecule: NCC(CC(=O)O)c1ccc(Cl)cc1 (stereo not drawn) [baclofen]
- DILI +VE (5-8), DILI -VE (-4) ([2]; ref Chen 2016): +VE
- DILI severity category ([2]; ref Chen 2016): vLess-DILI-Concern
- Cellular toxicity (3T3 cells) [1, 4]: -VE
- Combined Assay [1, 4]: -VE
- GSH adduct HML [1, 4]: -VE
- Hepatocyte cellular toxicity [1, 4]: -VE
- MitoTox 3T3 [1, 4]: -VE
- TDI CYP3A4 [1, 4]: -VE
- hBSEP inhibition [1, 4]: -VE
- In vivo DILI ([3]; ref Schadt 2015): -VE

Molecule: CCCCc1oc2ccc(NS(C)(=O)=O)cc2c1C(=O)c1ccc(OCCCN(CCCC)CCCC)cc1 [dronedaron]
- Cellular toxicity (3T3 cells) [1, 4]: +VE
- Combined Assay [1, 4]: -VE
- GSH adduct HML [1, 4]: -VE
- Hepatocyte cellular toxicity [1, 4]: -VE
- MitoTox 3T3 [1, 4]: -VE
- TDI CYP3A4 [1, 4]: -VE
- hBSEP inhibition [1, 4]: -VE
- In vivo DILI ([3]; ref Schadt 2015): +VE

Molecule: CN[C@@H](C)Cc1ccccc1 [methamphetamine]
- DILI +VE (5-8), DILI -VE (-4) ([2]; ref Chen 2016): -VE
- DILI severity category ([2]; ref Chen 2016): vNo-DILI-Concern
- In vivo DILI ([3]; […]): -VE

Molecule: COc1ccccc1OCC(O)COC(N)=O (stereo not drawn) [methocarbamol]
- DILI +VE (5-8), DILI -VE (-4) ([2]; ref Chen 2016): -VE
- DILI severity category ([2]; ref Chen 2016): Ambiguous DILI-concern
- In vivo DILI ([3]; […]): -VE

Molecule: C[C@](N)(Cc1ccc(O)cc1)C(=O)O [metyrosine]
- DILI +VE (5-8), DILI -VE (-4) ([2]; ref Chen 2016): -VE
- DILI severity category ([2]; ref Chen 2016): vNo-DILI-Concern
- In vivo DILI ([3]; […]): -VE

Molecule: COc1ccc(OC)c(C(O)CNC(=O)CN)c1 (stereo not drawn) [midodrine]
- DILI +VE (5-8), DILI -VE (-4) ([2]; ref Chen 2016): -VE
- DILI severity category ([2]; ref Chen 2016): vNo-DILI-Concern
- In vivo DILI ([3]; […]): -VE

Molecule: NC(=O)C[S+]([O-])C(c1ccccc1)c1ccccc1 (stereo not drawn) [modafinil]
- DILI +VE (5-8), DILI -VE (-4) ([2]; ref Chen 2016): +VE
- DILI severity category ([2]; ref Chen 2016): vLess-DILI-Concern
- In vivo DILI ([3]; […]): -VE

Molecule: CC(C)[C@H]1CC[C@H](C(=O)N[C@H](Cc2ccccc2)C(=O)O)CC1 [nateglinide]
- DILI +VE (5-8), DILI -VE (-4) ([2]; ref Chen 2016): -VE
- DILI severity category ([2]; ref Chen 2016): Ambiguous DILI-concern
- In vivo DILI ([3]; […]): -VE

Molecule: CC1(C)NC(=O)N(c2ccc([N+](=O)[O-])c(C(F)(F)F)c2)C1=O [nilutamide]
- DILI +VE (5-8), DILI -VE (-4) ([2]; ref Chen 2016): +VE
- DILI severity category ([2]; ref Chen 2016): vMost-DILI-Concern
- In vivo DILI ([3]; […]): +VE

Molecule: CC1COc2c(N3CCN(C)CC3)c(F)cc3c(=O)c(C(=O)O)cn1c23 (stereo not drawn) [ofloxacin]
- DILI +VE (5-8), DILI -VE (-4) ([2]; in vivo): +VE
- DILI severity category ([2]; in vivo): vLess-DILI-Concern
- In vivo DILI ([3]; in vivo): +VE

Molecule: COc1ccc2[nH]c([S+]([O-])Cc3ncc(C)c(OC)c3C)nc2c1 (stereo not drawn) [omeprazole]
- DILI +VE (5-8), DILI -VE (-4) ([2]; ref Chen 2016): +VE
- DILI severity category ([2]; ref Chen 2016): vLess-DILI-Concern
- In vivo DILI ([3]; […]): -VE

Molecule: CN1CC[C@]23c4c5ccc(O)c4O[C@H]2C(=O)CC[C@@]3(O)[C@H]1C5 [oxymorphone]
- DILI +VE (5-8), DILI -VE (-4) ([2]; ref Chen 2016): -VE
- DILI severity category ([2]; ref Chen 2016): vNo-DILI-Concern
- In vivo DILI ([3]; […]): -VE

Molecule: CC(=O)O[C@H]1C(=O)[C@@]2(C)[C@H]([C@H](OC(=O)c3ccccc3)[C@]3(O)C[C@H](OC(=O)[C@H](O)[C@@H](NC(=O)c4ccccc4)c4ccccc4)C(C)=C1C3(C)C)[C@]1(OC(C)=O)CO[C@@H]1C[C@@H]2O [paclitaxel]
- DILI +VE (5-8), DILI -VE (-4) ([2]; ref Chen 2016): +VE
- DILI severity category ([2]; ref Chen 2016): vLess-DILI-Concern
- In vivo DILI ([3]; ref O'Brien 2006): +VE
- In vivo DILI ([3]; ref Persson 2013): +VE

Molecule: NC1=NC(=O)C(c2ccccc2)O1 (stereo not drawn) [pemoline]
- DILI +VE (5-8), DILI -VE (-4) ([2]; in vivo): +VE
- DILI severity category ([2]; in vivo): vMost-DILI-Concern
- In vivo DILI ([3]; in vivo): +VE

Molecule: C[C@H]1[C@H](c2ccccc2)OCCN1C [phendimetrazine]
- DILI +VE (5-8), DILI -VE (-4) ([2]; ref Chen 2016): -VE
- DILI severity category ([2]; ref Chen 2016): vNo-DILI-Concern
- In vivo DILI ([3]; […]): -VE

Molecule: CC(C)(N)Cc1ccccc1 [phentermine]
- DILI +VE (5-8), DILI -VE (-4) ([2]; ref Chen 2016): +VE
- DILI severity category ([2]; ref Chen 2016): vLess-DILI-Concern
- In vivo DILI ([3]; […]): -VE

Molecule: CCN(CC)CCNC(=O)c1ccc(N)cc1 [procainamide]
- DILI +VE (5-8), DILI -VE (-4) ([2]; in vivo): +VE
- DILI severity category ([2]; in vivo): vLess-DILI-Concern
- In vivo DILI ([3]; in vivo): +VE

Molecule: CNNCc1ccc(C(=O)NC(C)C)cc1 [procarbazine]
- DILI +VE (5-8), DILI -VE (-4) ([2]; in vivo): +VE
- DILI severity category ([2]; in vivo): vLess-DILI-Concern
- In vivo DILI ([3]; in vivo): +VE

Molecule: O=P(O)(O)C(O)(Cc1cccnc1)P(=O)(O)O [risedronate]
- DILI +VE (5-8), DILI -VE (-4) ([2]; ref Chen 2016): -VE
- DILI severity category ([2]; ref Chen 2016): Ambiguous DILI-concern
- In vivo DILI ([3]; […]): -VE

Molecule: C#CCN(C)[C@H](C)Cc1ccccc1 [selegiline]
- DILI +VE (5-8), DILI -VE (-4) ([2]; in vivo): -VE
- DILI severity category ([2]; in vivo): vNo-DILI-Concern
- In vivo DILI ([3]; in vivo): -VE

Molecule: CCOC(=O)COC1CCN(C(=O)[C@H](C)NC(=O)c2ccc(C(=N)NO)cc2)CC1 [sibrafiban]
- Cellular toxicity (3T3 cells) [1, 4]: -VE
- Combined Assay [1, 4]: -VE
- GSH adduct HML [1, 4]: -VE
- Hepatocyte cellular toxicity [1, 4]: -VE
- MitoTox 3T3 [1, 4]: -VE
- TDI CYP3A4 [1, 4]: -VE
- hBSEP inhibition [1, 4]: -VE
- In vivo DILI ([3]; ref Schadt 2015): -VE

Molecule: CN1C(C(=O)Nc2nccs2)=C(O)c2ccccc2S1(=O)=O [sudoxicam]
- Cellular toxicity (3T3 cells) [1]: -VE
- Combined Assay [1]: -VE
- GSH adduct HML [1]: -VE
- Hepatocyte cellular toxicity [1]: -VE
- MitoTox 3T3 [1]: -VE
- TDI CYP3A4 [1]: -VE
- hBSEP inhibition [1]: -VE

Molecule: COc1cc2nc(N3CCN(C(=O)C4CCCO4)CC3)nc(N)c2cc1OC (stereo not drawn) [terazosin]
- DILI +VE (5-8), DILI -VE (-4) ([2]; ref Chen 2016): -VE
- DILI severity category ([2]; ref Chen 2016): vNo-DILI-Concern
- In vivo DILI ([3]; […]): -VE
- In vivo DILI ([3]; ref Aleo 2019): -VE

Molecule: C[C@]12CC[C@H]3[C@@H](CCC4=CC(=O)CC[C@@]43C)[C@@H]1CC[C@@H]2O [testosterone]
- DILI +VE (5-8), DILI -VE (-4) ([2]; in vivo): +VE
- DILI severity category ([2]; in vivo): vMost-DILI-Concern
- In vivo DILI ([3]; in vivo): -VE

Molecule: Cc1cccc(Nc2ccncc2S(=O)(=O)NC(=O)NC(C)C)c1 [torasemide]
- DILI +VE (5-8), DILI -VE (-4) ([2]; ref Chen 2016): -VE
- DILI severity category ([2]; ref Chen 2016): Ambiguous DILI-concern
- In vivo DILI ([3]; […]): -VE

Molecule: COc1cc(Cc2cnc(N)nc2N)cc(OC)c1OC [trimethoprim]
- DILI +VE (5-8), DILI -VE (-4) ([2]; ref Chen 2016): +VE
- DILI severity category ([2]; ref Chen 2016): vLess-DILI-Concern
- In vivo DILI ([3]; […]): -VE
- In vivo DILI ([3]; ref Garside 2014): +VE

Molecule: capreomycin
- DILI +VE (5-8), DILI -VE (-4) ([2]; in vivo): -VE
- DILI severity category ([2]; in vivo): Ambiguous DILI-concern
- In vivo DILI ([3]; in vivo): -VE
